# Data published in paper PMC4319692 (Molecular Pharmaceutics, 2014).
# Assay: Metabolic stability in human liver microsomes
# Format: in vitro ADME
# Details: 10 μM, pooled human liver microsomes 1 mg/mL with cofactors, 2 h
compound,measurement,value
C[C@]12CC[C@H]3[C@@H](CCC4=CC(=O)CC[C@@]43C)[C@@H]1CC[C@@H]2O [testosterone],decrease (disappearance) of parent compound,more than 95%
